Data reported in patent US6645755B1, “VECTOR MODIFIED BY SEQUENCE CODING FOR A SEQUENCE OF AMINO ACIDS CONTAINED IN A MAMMALIAN PROTEIN HAVING THE BIOLOGICAL ACTIVITY OF A MEMBRANE RECEPTOR, EXPRESSION OF THIS SEQUENCE IN TRANSFORMED UNICELLULAR CULTURES BY MEANS OF THIS VECTOR, PROCEDURE FOR STUDYING LIGANDS RECOGNIZING THESE RECEPTORS” (Centre National de la Recherche Scientifique, priority 1988, dated 2003).
Like-named read-outs stand apart in the source and are kept apart here.

Columns and labels:
mamm. β1AR = conditions: reference mammalian tissues, cited from earlier work; for mamm. β1/β2: Ki ratio
mamm. β2AR = conditions: reference mammalian tissues; cited from earlier work
Huβ1AR [1] = molecular target: Huβ1AR (Homo sapiens, UniProt P08588); experiment: Competition binding against ICYP on E. coli expressing Huβ1AR (pSMLβ1)
Huβ1AR [2] = experiment: as above; conditions: ratio of Ki on Huβ1AR and Huβ2AR expressed in E. coli
Huβ2AR = Huβ2AR (Homo sapiens, UniProt P07550); experiment: Competition binding against ICYP on E. coli expressing Huβ2AR (pSMLβ2)
[3] = molecular target: T1, human β2-adrenergic receptor (Homo sapiens, UniProt P07550); experiment: cell-based; format: binding
T1 construct: extending from the NcoI site to the DraI site which contained the coding region for the human β2-adrenergic receptor; β-galactosidase (lacZ product of λgt11, fused at the EcoRI site near the 3' end of lacZ) (N); linker Asp-Asp-Pro (acid-cleavable) (N); expressed in transfected cells; host or cells: E. coli Y1089 lysogenized with recombinant λgt11

Sequence of Huβ1AR (Homo sapiens, UniProt P08588) (P08588 58-377 limits assumed): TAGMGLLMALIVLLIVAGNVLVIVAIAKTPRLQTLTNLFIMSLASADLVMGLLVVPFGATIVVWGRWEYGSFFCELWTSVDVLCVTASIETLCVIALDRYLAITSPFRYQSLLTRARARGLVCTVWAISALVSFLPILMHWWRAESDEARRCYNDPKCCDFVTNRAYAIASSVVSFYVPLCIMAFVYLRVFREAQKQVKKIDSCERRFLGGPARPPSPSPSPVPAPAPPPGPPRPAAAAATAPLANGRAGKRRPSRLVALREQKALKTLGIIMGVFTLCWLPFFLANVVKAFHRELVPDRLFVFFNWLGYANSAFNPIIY

| Ki (Huβ2AR; read-out: Ki E. coli Huβ2AR, 10 pM ICYP as radioligand, Ki calculated from IC50) [nM] | Compound | mamm. β1/β2 (mamm. β1AR) | Ki (mamm. β1AR) [nM] | Ki (mamm. β2AR) [nM] | Ki (Huβ1AR [1]) [nM] | E. coli Kiβ1/Kiβ2 (Huβ1AR [2]) | Ki (Huβ2AR) [nM] | Ki [3] [nM] | Ki (Huβ1AR [1]; read-out: Ki E. coli Huβ1AR, 10 pM ICYP as radioligand, Ki calculated from IC50) [nM] |
| --- | --- | --- | --- | --- | --- | --- | --- | --- | --- |
| – | CC(C)(Cc1ccccc1)NCC(O)c1ccc(O)c(NS(C)(=O)=O)c1 (centres unmarked) [zinterol] | 8,1 | 170 | 21 | 168 | 18,4 | 9.14 | – | – |
| – | (−) epinephrine | – | – | – | – | – | – | 4700 ± 1400 | – |
| – | CNC[C@H](O)c1ccc(O)c(O)c1 [epinephrine] | 4,7 | 1900 | 403 | – | – | – | – | – |
| 3.83 | OC(CNCC(O)C1CCc2cc(F)ccc2O1)C1CCc2cc(F)ccc2O1 (centres unmarked) [R67555] | 0,02 | 0.9 | 46 | – | – | – | – | – |
| – | CC(C)NCC(O)COc1cccc2ccccc12 (centres unmarked) [propranolol] | 5,5 | – | – | – | – | – | – | – |
| – | CCC(NC(C)C)C(O)c1ccc(O)c2[nH]c(=O)ccc12 (centres unmarked) [procaterol] | – | – | – | 4650 | 84,1 | 55.3 | 40 ± 8 | – |
| – | CC(C)(C)NCC(O)c1cc(Cl)c(N)c(Cl)c1 (centres unmarked) [clembuterol] | 5,1 | 71 | 14 | – | – | – | – | 37 |
| – | NC[C@H](O)c1ccc(O)c(O)c1 [norepinephrine] | 1,49 | 2800 | 1880 | – | – | – | – | – |
| – | Cc1ccc(OCC(O)C(C)NC(C)C)c2c1CCC2 (centres unmarked) [ICI 118,551] | 130 | 86 | – | – | – | – | – | – |
| – | CS(=O)(=O)O.Cn1cc(C(F)(F)F)nc1-c1ccc(OCC(O)CNCCOc2ccc(O)c(C(N)=O)c2)cc1 (centres unmarked) [CGP 20712-A] | 0,003 | 3.24 | 982 | – | 0,0005 | – | – | – |
